Reference: patent US20120214874A1, “PHARMACEUTICAL FORMULATIONS AND METHODS OF USE” (Nuvo Research Inc., priority 2009, published 2012)

Experiment: pH measurement of formulations and panthenol solutions (Experiments A-C, E)
Assay type: physicochemical
Description: Experiment A: AMP (0.0006%) was added to NRI-ANA-14 to replicate the AMP concentration in NRI-ANA-08. After AMP addition, the pH of NRI-ANA-08 was 4.1, and the pH of NRI-ANA-14 (+0.0006% AMP) was 4.2. This supported the hypothesis.
Experiment B: AMP (0.012%) was added to NRI-ANA-14 to replicate the AMP concentration in NRI-ANA-13. After AMP addition, the pH of NRI-ANA-13 was 4.8, and the pH of NRI-ANA-14 (+0.012% AMP) was 4.8. This supported the hypothesis.
Experiment C: A modified NRI-ANA-14 formulation containing 1.3% TEC and citric acid equivalent to 0.7% TEC was prepared. A control NRI-ANA-14 formulation was subjected to a stability study according to the method set forth in Example 19. After six months at 40° C., the pH of the control NRI-ANA-14 formulation was 2.6, while the pH of the modified NRI-ANA-14 formulation was 1.6. This supported the hypothesis.
Experiment E: The pH of 10% aqueous solution of D,L- and D-panthenol were measured. The pH of 10% D,L-panthenol was 6.7, but the pH of 10% D-panthenol was 9.4. This supported the hypothesis.

Question: Which “pH of 10% aqueous solution” value does the source give for “(2R)-2,4- dihydroxy-N- (3- hydroxy- propyl)-2,3,3- trimethyl- butanamide [D-panthenol]” here?
Answer: The value was 9.4.

Question: For “2,4-dihydroxy-N-(3-hydroxypropyl)-3,3-dimethyl-butanamide [D,L-panthenol]”, which “pH of 10% aqueous solution” value is on record?
Answer: Its value is 6.7.
